Laboratory results published in patent US6689883B1, “Substituted pyridines and pyridazines with angiogenesis inhibiting activity” (Bayer Pharmaceuticals Corporation, priority 1999, dated 2004).

Key:
[1] = biological target: T1, full length KDR receptor in NIH3T3 cells (Homo sapiens, UniProt P35968); test: Cell Mechanistic Assay-Inhibition of 3T3 KDR Phosphorylation; assay type: cell-based; conditions: NIH3T3 cells expressing KDR, VEGF 30 ng/ml stimulation
T1 construct: NIH3T3 cells expressing the full length KDR receptor were grown in DMEM; expressed in transfected cells; host or cells: NIH3T3 cells (G418 selection)
Procedure: NIH3T3 cells expressing the full length KDR receptor were grown in DMEM (Life Technologies, Inc., Grand Island, N.Y.) supplemented with 10% newborn calf serum, low glucose, 25 mM/L sodium pyruvate, pyridoxine hydrochloride and 0.2 mg/ml of G418 (Life Technologies Inc., Grand Island, N.Y.). The cells were maintained in collagen I-coated T75 flasks (Becton Dickinson Labware, Bedford, Mass.) in a humidified 5% CO2 atmosphere at 37° C.
Fifteen thousand cells were plated into each well of a collagen I-coated 96-well plate in the DMEM growth medium. Six hours later, the cells were washed and the medium was replaced with DMEM without serum. After overnight culture to quiesce the cells, the medium was replaced by Dulbecco's phosphate-buffered saline (Life Technologies Inc., Grand Island, N.Y.) with 0.1% bovine albumin (Sigma Chemical Co., St Louis, Mo.). After adding various concentrations (0-300 nM) of test compounds to the cells in 1% final concentration of DMSO, the cells were incubated at room temperature for 30 minutes. The cells were then treated with VEGF (30 ng/ml) for 10 minutes at room temperature. Following VEGF stimulation, the buffer was removed and the cells were lysed by addition of 150 μl of extraction buffer (50 mM Tris, pH 7.8, supplemented with 10% glycerol, 50 mM BGP, 2 mM EDTA, 10 mM NaF, 0.5 mM NaVO4, and 0.3% TX-100) at 4° C. for 30 minutes.
To assess receptor phosphorylation, 100 microliters of each cell lysate was added to the wells of an ELISA plate precoated with 300 ng of antibody C20 (Santa Cruz Biotechnology, Inc., Santa Cruz, Calif.). Following a 60-minute incubation, the plate was washed and bound KDR was probed for phosphotyrosine using an anti-phosphotyrosine mAb clone 4G10 (Upstate Biotechnology, Lake Placid, N.Y.). The plate was washed and wells were incubated with anti-mouse IgG/HRP conjugate (Amersham International plc, Buckinghamshire, England) for 60 minutes. Wells were washed and phosphotyrosine was quantitated by addition of 100 μl per well of 3,3′,5,5′tetramethylbenzidine (Kirkegaard and Perry, TMB Microwell 1 Component peroxidase substrate) solution. Color development was arrested by the addition of 100 μl 1% HCl based stop solution (Kirkegaard and Perry, TMB 1 Component Stop Solution).
Optical densities (OD) were determined spectrophotometrically at 450 nm in a 96-well plate reader (SpectraMax 250, Molecular Devices). Background (no VEGF added) OD values were subtracted from all ODs and percent inhibition was calculated according to the equation: [formula]
IC50s were determined on some of the exemplary materials with a least squares analysis program using compound concentration versus percent inhibition. Compounds that have IC50≦20 nM in this assay include those of Examples 2, 6, 10, 11, 14, 23, 96, 101, 102, 103, 104, 105. Compounds that have IC50 values between 20 nM and 50 nM include those of examples 1, 4, 8, 9, 12, 13, 17, 24, 93, 98. Compounds that have IC50 values between 50 nM and 400 nM include those of examples 97, 99, and 100.

[2] = biological target: T2, cytosolic kinase domain of KDR kinase (Homo sapiens, UniProt P35968); test: KDR Assay (ELISA, poly(Glu4;Tyr1) phosphorylation); assay type: biochemical; conditions: 3.3 μM ATP, 60 minutes at room temperature
T2 construct: The cytosolic kinase domain of KDR kinase was expressed as a 6His fusion protein in Sf9 insect cells; 6His; made in house; host or cells: Sf9 insect cells
Procedure: The cytosolic kinase domain of KDR kinase was expressed as a 6His fusion protein in Sf9 insect cells. The KDR kinase domain fusion protein was purified over a Ni++ chelating column. Ninety-six well ELISA plates were coated with 5 μg poly(Glu4;Tyr1) (Sigma Chemical Co., St Louis, Mo.) in 100 μl HEPES buffer (20 mM HEPES, pH 7.5, 150 mM NaCl, 0.02% Thimerosal) at 4° overnight. Before use, the plate was washed with HEPES, NaCl buffer and the plates were blocked with 1% BSA, 0.1% Tween 20 in HEPES, NaCl buffer.
Test compounds were serially diluted in 100% DMSO from 4 mM to 0.12 μM in half-log dilutions. These dilutions were further diluted twenty fold in H2O to obtain compound solutions in 5% DMSO. Following loading of the assay plate with 85 μl of assay buffer (20 mM HEPES, pH 7.5, 100 mM KCl, 10 mM MgCl2, 3 mM MnCl2, 0.05% glycerol, 0.005% Triton X-100, 1 mM-mercaptoethanol, with or without 3.3 μM ATP), 5 μl of the diluted compounds were added to a final assay volume of 100 μl. Final concentrations were between 10 μM, and 0.3 nM in 0.25% DMSO. The assay was initiated by the addition of 10 μl (30 ng) of KDR kinase domain.
The assay was incubated with test compound or vehicle alone with gentle agitation at room temperature for 60 minutes. The wells were washed and phosphotyrosines (PY) were probed with an anti-phosphotyrosine (PY), mAb clone 4G10 (Upstate Biotechnology, Lake Placid, N.Y.). PY/anti-PY complexes were detected with an anti-mouse IgG/HRP conjugate (Amersham International plc, Buckinghamshire, England). Phosphotyrosine was quantitated by incubating with 100 μl 3,3′,5,5′tetramethylbenzidine solution (Kirkegaard and Perry, TMB Microwell 1 Component peroxidase substrate). Color development was arrested by the addition of 100 μl 1% HCl-based stop solution (Kirkegaard and Perry, TMB 1 Component Stop Solution).
Optical densities were determined spectrophotometrically at 450 nm in a 96-well plate reader, SpectraMax 250 (Molecular Devices). Background (no ATP in assay) OD values were subtracted from all ODs and the percent inhibition was calculated according to the equation: [formula]

T2 sequence (P35968 834-1162 limits assumed): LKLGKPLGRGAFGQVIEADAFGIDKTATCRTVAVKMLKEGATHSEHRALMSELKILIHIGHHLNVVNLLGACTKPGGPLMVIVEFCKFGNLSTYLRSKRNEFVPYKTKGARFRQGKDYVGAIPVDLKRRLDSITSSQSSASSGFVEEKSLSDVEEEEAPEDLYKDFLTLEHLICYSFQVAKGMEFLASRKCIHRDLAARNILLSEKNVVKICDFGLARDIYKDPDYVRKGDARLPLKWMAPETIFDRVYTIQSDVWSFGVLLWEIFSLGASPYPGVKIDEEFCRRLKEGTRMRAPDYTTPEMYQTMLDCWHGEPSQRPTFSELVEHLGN
T1 sequence (P35968 20-1356): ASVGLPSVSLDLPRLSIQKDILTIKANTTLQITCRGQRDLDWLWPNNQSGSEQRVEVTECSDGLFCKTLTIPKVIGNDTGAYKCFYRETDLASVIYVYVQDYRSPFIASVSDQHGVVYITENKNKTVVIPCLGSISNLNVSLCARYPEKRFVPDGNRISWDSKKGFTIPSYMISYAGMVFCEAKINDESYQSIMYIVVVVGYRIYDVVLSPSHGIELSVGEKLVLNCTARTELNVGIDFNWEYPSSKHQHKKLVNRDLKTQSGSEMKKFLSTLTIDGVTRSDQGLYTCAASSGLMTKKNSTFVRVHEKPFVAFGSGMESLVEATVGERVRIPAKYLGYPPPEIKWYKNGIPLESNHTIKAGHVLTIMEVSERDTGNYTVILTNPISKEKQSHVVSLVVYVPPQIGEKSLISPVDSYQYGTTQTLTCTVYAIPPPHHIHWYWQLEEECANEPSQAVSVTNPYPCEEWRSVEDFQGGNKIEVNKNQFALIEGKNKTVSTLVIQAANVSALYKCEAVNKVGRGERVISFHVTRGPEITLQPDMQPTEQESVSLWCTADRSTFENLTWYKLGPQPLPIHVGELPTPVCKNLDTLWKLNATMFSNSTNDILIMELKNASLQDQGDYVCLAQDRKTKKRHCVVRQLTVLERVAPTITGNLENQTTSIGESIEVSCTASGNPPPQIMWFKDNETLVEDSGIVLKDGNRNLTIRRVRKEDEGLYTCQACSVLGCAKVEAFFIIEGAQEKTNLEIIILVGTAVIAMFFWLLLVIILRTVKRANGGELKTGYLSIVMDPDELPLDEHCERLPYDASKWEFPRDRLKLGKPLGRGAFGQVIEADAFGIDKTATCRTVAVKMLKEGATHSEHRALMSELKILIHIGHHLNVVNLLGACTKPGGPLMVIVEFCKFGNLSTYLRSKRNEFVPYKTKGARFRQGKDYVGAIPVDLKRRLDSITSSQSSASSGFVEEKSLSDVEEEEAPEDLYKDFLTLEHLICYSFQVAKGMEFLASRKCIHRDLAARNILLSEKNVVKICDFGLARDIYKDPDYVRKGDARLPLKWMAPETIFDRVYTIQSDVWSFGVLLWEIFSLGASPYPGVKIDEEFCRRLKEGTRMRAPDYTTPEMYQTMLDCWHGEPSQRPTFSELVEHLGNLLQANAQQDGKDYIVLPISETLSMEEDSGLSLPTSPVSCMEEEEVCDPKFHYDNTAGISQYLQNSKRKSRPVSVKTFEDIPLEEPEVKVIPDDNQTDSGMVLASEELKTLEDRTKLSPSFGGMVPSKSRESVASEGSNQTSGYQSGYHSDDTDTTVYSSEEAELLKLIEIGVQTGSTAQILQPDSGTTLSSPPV

SMILES	IC50 [1] [nM]	IC50 [2] [nM]	melting point
c1ccc2c(Nc3ccc4c(c3)CCC4)ncc(Sc3ccncc3)c2c1 [Example 2, 1-(indan-5-ylamino)-4-(4-pyridylthio)isoquinoline]	≤ 20	≤ 100	
Clc1ccc(Nc2nnc(Nc3ccc4nn[nH]c4c3)c3ccccc23)cc1 [Example 96]	≤ 20	≤ 100	
COc1cccc(Nc2nnc(Nc3ccc4ncsc4c3)c3ccccc23)c1 [Example 103]	≤ 20	≤ 100	
Clc1ccc(Nc2nnc(Nc3ccc4ncsc4c3)c3ccccc23)cc1 [Example 105]	≤ 20	≤ 100	
NC(=O)c1cc(COc2nnc(Nc3ccc(Cl)cc3)c3ccsc23)ccn1 [Example 10, 4-(4-chlorophenylamino)-7-(2-aminocarbonyl-4-pyridylmethoxy)thieno-[2,3-d]pyridazine]	≤ 20	≤ 100	233 °C
CNC(=O)c1cc(COc2nnc(Nc3ccc(Cl)cc3)c3ccoc23)ccn1 [Example 14, 4-(4-chlorophenylamino)-7-(2-methylaminocarbonyl-4-pyridylmethoxy)furo-[2,3-d]pyridazine]	≤ 20	≤ 100	
CNC(=O)c1cc(COc2nnc(Nc3ccc(Cl)cc3)c3ccsc23)ccn1 [Example 11, 4-(4-chlorophenylamino)-7-(2-methylaminocarbonyl-4-pyridylmethoxy)thieno-[2,3-d]pyridazine]	≤ 20	≤ 100	
Clc1ccc(Nc2nnc(OCc3ccncc3)c3sccc23)cc1 [Example 8, 4-(4-chlorophenylamino)-7-(4-pyridylmethoxy)thieno-[2,3-d]pyridazine]		≤ 100	203 to 205 °C (dec.)

Continued, values first:

IC50 [1] [nM]	IC50 [2] [nM]	melting point	SMILES
≤ 20			Clc1ccc(Nc2nnc(Nc3ccc4ncsc4c3)c3sccc23)cc1 [Example 23]
≤ 20	≤ 100		CC(C)c1ccc(Nc2nnc(Nc3ccc4ncsc4c3)c3ccccc23)cc1 [Example 102]
≤ 20	≤ 100		c1ccc2c(Nc3ccc4c(c3)CCC4)ncc(Cc3ccncc3)c2c1 [Example 6, 1-(indan-5-ylamino)-4-(4-pyridylmethyl)-isoquinoline]
≤ 20	≤ 100		Brc1cccc(Nc2nnc(Nc3ccc4ncsc4c3)c3ccccc23)c1 [Example 101]
20 to 50	≤ 100		Clc1ccc(Nc2nnc(OCc3ccncc3)c3occc23)cc1 [Example 9, 4-(4-chlorophenylamino)-7-(4-pyridylmethoxy)furo[2,3-d]pyridazine]
